# Patent US5708034A, “Substituted sulfonimidamides, processes for their preparation, their use as a medicament or diagnostic, and medicament comprising them” (Hoechst Aktiengesellschaft, priority 1995, dated 1998)
# Structures can show the parent of a compound that is named as a salt.
# Target: T1, Na^+ /H^+ exchanger of rabbit erythrocytes (Oryctolagus cuniculus, UniProt P23791)
# T1 construct: determine the Na^+ influx into the erythrocytes via Na^+ /H^+ exchange by flame photometry; endogenous in cells; host or cells: erythrocytes from ear-artery blood of cholesterol-fed White New Zealand rabbits (animals from Ivanovas)
# Assay: Inhibition of the Na^+ /H^+ exchanger of rabbit erythrocytes (amiloride-sensitive Na^+ influx, flame photometry)
# Type: cell-based, rabbit (White New Zealand)
# Conditions: hyperosmolar salt-sucrose medium, pH 7.4, 37° C., sodium influx by flame photometry
# Text: Inhibition of the Na^+ /H^+ exchanger of rabbit erythrocytes
# White New Zealand rabbits (Ivanovas) received a standard diet with 2% cholesterol for six weeks in order to activate Na^+ /H^+ exchange and thus to be able to determine the Na^+ influx into the erythrocytes via Na^+ /H^+ exchange by flame photometry. The blood was taken from the ear arteries and rendered incoagulable by means of 25 IU of potassium heparin. A part of each sample was used for the duplicate determination of the hematocrit by centrifugation. Aliquots of 100 μl in each case were used to measure the Na^+ starting content of the erythrocytes.
# In order to determine the amiloride-sensitive sodium influx, 100 μl of each blood sample were incubated in each case in 5 ml of a hyperosmolar salt-sucrose medium (mmol/l: 140 NaCl, 3 KCl, 150 sucrose, 0.1 ouabain, 20 tris-hydroxymethylaminomethane) at pH 7.4 and 37° C. The erythrocytes were then washed three times with ice-cold MgCl2 ouabain solution (mmol/l: 112 MgCl2, 0.1 ouabain) and hemolyzed in 2.0 ml of distilled water. The intracellular sodium content was determined by flame photometry.
# The net Na^+ influx was calculated from the difference between sodium starting values and the sodium content of the erythrocytes after incubation. The amiloride-inhibitable sodium influx resulted from the difference between the sodium content of the erythrocytes after incubation with and without amiloride 3×10^-4 mol/l. This procedure was also used in the case of the compounds according to the invention.
# T1 sequence (P23791 whole entry): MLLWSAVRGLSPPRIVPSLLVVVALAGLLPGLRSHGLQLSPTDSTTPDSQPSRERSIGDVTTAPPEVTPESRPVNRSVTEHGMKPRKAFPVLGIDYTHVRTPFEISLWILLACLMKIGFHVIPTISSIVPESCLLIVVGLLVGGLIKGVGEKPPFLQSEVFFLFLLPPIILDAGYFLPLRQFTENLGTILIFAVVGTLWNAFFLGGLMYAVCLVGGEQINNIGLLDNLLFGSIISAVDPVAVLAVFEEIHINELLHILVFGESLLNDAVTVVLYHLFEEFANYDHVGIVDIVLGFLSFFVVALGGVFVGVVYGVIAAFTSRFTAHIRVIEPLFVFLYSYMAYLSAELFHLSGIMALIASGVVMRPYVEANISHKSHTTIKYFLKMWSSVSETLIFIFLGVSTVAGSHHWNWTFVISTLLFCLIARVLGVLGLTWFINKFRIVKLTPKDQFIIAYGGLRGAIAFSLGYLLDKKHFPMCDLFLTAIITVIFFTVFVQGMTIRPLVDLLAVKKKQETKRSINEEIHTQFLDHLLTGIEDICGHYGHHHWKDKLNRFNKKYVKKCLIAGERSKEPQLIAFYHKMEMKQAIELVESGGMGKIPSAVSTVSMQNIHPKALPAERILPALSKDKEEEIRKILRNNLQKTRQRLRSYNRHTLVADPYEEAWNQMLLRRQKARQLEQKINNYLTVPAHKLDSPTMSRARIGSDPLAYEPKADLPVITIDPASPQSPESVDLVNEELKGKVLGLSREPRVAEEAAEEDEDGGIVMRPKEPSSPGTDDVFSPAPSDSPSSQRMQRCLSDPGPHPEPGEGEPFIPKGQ
row,IC50,Structure (SMILES)
1,53 µM,"CCN=S(=O)(c1ccc(F)cc1)N(CC)c1ccc(C(=O)N=C(N)N)cc1C(F)(F)F (stereo not shown) [Example 2, 4-(4-Fluorobenzene-N,N'-diethylsulfimidamoyl)-3-trifluoro-methylbenzoylguanidine, dihydrochloride]"
2,2000 µM,"CS(=O)(=O)c1cc(C(=O)N=C(N)N)ccc1NS(=N)(=O)c1ccc(F)cc1 (stereo not shown) [Example 3, 3-Methylsulfonyl-4-(4-fluorobenzenesulfimidamoyl)benzoylguanidine]"
3,6000 µM,"CN=S(=O)(NC)c1cc(C(=O)N=C(N)N)ccc1C(C)C (stereo not shown) [Example 4, 2-isopropyl-5-guanidinocarbonylbenzenesulfonic acid N,N'-dimethylimidamide]"
4,680 µM,"CCN=S(=O)(c1ccc(F)cc1)N(CC)c1ccc(C(=O)N=C(N)N)cc1S(C)(=O)=O (stereo not shown) [Example 1, 4-(4-Fluorobenzene-N,N'-diethylsulfimidamoyl)-3-methyl-sulfonylbenzoylguanidine, dihydrochloride]"
